Tests used:
Androgen receptor [1] = target: T1, Androgen receptor (Homo sapiens, UniProt P10275); assay: Binding affinity against Androgen receptor transfected into COS cells
T1 sequence (P10275 whole entry): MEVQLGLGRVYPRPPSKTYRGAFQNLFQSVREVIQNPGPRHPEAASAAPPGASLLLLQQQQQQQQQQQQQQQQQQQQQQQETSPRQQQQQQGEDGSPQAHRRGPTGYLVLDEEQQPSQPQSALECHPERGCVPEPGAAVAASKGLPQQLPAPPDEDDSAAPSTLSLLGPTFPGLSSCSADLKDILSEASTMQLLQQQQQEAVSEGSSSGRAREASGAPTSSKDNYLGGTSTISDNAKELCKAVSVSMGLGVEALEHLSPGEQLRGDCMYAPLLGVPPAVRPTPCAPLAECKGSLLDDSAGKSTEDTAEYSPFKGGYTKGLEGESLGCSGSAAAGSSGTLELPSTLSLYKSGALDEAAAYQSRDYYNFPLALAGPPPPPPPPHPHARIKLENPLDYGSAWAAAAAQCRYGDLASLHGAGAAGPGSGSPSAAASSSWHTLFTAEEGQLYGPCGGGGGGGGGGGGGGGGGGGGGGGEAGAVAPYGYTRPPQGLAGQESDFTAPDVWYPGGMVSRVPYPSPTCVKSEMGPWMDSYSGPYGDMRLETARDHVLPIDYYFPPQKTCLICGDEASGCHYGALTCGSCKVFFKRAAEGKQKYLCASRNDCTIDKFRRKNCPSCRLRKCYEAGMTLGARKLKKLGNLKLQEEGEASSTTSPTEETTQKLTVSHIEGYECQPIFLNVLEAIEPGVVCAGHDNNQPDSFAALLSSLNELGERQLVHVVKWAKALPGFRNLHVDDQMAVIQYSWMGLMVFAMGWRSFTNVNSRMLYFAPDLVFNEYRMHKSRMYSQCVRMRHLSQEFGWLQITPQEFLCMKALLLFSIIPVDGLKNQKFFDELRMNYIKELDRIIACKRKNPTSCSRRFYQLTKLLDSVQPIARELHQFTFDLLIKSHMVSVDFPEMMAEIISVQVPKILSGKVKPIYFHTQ

[2] = target: T2, Mineralocorticoid receptor (Homo sapiens, UniProt P08235); assay: Antagonistic activity against hMR in co-transfected CV-1 cell; type: functional, cell-based
T2 sequence (P08235 whole entry): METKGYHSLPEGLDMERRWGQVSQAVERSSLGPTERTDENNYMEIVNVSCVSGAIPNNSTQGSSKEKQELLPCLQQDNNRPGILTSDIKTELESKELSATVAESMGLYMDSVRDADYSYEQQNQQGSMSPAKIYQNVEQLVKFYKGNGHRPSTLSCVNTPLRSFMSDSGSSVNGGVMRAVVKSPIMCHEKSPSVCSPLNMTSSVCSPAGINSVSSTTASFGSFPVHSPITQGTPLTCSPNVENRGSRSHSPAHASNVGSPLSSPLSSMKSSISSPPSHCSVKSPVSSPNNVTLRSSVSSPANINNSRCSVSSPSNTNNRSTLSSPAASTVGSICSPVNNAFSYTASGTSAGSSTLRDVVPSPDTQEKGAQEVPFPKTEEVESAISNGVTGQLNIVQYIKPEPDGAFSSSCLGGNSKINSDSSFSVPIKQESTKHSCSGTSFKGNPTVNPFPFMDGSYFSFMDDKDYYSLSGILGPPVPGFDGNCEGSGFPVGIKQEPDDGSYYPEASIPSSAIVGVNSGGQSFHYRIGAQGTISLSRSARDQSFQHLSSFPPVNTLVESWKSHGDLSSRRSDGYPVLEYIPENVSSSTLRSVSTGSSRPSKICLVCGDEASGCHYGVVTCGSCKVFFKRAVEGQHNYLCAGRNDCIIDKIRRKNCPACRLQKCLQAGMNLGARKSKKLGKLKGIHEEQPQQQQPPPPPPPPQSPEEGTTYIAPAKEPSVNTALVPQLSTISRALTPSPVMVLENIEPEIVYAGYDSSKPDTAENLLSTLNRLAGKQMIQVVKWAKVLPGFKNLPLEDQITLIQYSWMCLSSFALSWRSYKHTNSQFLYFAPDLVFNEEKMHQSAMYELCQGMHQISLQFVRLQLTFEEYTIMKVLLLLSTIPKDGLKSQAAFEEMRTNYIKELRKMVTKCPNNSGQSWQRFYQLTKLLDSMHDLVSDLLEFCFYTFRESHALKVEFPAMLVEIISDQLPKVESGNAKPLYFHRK

Androgen receptor [3] = target: T1, Androgen receptor
Description: Antagonistic activity (IC50) against human androgen receptor (hAR) in co-transfected CV-1 cell

Progesterone receptor = target: T3, Progesterone receptor (Homo sapiens, UniProt P06401); assay: (§1) Antagonistic activity against hPR in co-transfected CV-1 cell; type: functional, cell-based
T3 sequence (P06401 whole entry): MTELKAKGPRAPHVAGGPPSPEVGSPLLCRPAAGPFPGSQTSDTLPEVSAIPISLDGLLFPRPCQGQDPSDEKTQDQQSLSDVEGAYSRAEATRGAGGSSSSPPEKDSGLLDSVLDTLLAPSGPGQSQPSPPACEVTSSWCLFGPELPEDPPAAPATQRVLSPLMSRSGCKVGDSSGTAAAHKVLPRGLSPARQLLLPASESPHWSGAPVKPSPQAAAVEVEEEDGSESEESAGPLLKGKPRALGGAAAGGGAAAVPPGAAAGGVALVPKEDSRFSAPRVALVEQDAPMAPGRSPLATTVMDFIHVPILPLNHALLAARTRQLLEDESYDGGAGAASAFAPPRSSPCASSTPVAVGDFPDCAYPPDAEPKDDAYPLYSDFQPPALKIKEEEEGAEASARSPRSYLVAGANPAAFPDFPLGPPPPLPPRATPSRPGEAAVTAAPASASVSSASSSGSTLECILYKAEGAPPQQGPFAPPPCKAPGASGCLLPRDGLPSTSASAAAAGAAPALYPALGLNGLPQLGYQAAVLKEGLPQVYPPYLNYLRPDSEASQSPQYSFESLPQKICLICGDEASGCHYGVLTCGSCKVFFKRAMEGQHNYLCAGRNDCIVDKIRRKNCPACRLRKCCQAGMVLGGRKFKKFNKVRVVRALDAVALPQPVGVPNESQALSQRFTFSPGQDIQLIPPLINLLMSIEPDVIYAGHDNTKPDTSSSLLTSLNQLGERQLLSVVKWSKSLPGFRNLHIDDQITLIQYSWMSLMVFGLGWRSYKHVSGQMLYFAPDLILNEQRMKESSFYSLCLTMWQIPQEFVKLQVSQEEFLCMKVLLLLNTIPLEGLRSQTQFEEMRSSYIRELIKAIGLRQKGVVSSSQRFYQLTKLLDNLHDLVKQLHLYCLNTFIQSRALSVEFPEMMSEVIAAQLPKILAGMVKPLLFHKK

Estrogen receptor = Estrogen receptor (Homo sapiens, UniProt Q92731+P03372); assay: Antagonistic activity against Estrogen receptor in co-transfected CV-1 cell; type: functional, cell-based
Androgen receptor [4] = target: T1, Androgen receptor; details: cv-1
Description: Agonistic activity against human androgen receptor (hAR) in co-transfected CV-1 cell

[5] = target: T4, Progesterone receptor (Homo sapiens) (UniProt P06401); assay: as §1; type: functional, cell-based
T4 sequence (whole entry): T3 sequence (P06401 whole entry)

| Structure (SMILES) | Ki (Androgen receptor [1]) | IC50 [2] | IC50 (Androgen receptor [3]) | IC50 (Progesterone receptor) | Efficacy (Estrogen receptor) | EC50 (Androgen receptor [4]) | Efficacy [5] |
| --- | --- | --- | --- | --- | --- | --- | --- |
| CN1c2cc3c(cc2[C@H]2CCCC[C@H]21)c(C(F)(F)F)cc(=O)n3C | 10 nM | > 10000 nM | 36 nM | 1000 nM | < 20% | Not Active | 98% |
| CC1(C)CCC[C@]2(C)c3cc4c(C(F)(F)F)cc(O)nc4cc3N[C@H]12 | 77 nM | 570 nM | 51 nM | 430 nM | < 20% | Not Active | 96% |
| C[C@H]1CC[C@H]2Nc3cc4c(cc3[C@H]2C1)c(C(F)(F)F)cc(=O)n4C | 94 nM | > 10000 nM | 48 nM | 380 nM | < 20% | Not Active | 97% |
